Results reported in patent US5711966A, “Method of treating malaria with desbutylhalofantrine” (priority 1996, dated 1998).
Entries after “also recorded” stand apart in the source; their conditions may differ. Like-named read-outs stand apart in the source and are kept apart here.

How the values were obtained:
[1] = test system: isolated perfused cat heart (QT interval); test: QT interval prolongation in isolated perfused heart; conditions: concentrations from 1 to 20 μM, pacing cycle length 400 msec
Experimental: Comparative studies evaluating prolongation of the QT interval using quinidine, halofantrine, and desbutylhalofantrine were performed on isolated perfused animal hearts. […] The ability to treat malaria with this metabolite without causing cardiotoxicity greatly improves the safety of antimalarial treatment.
(§1) A comparison of the parent drug, halofantrine with the metabolite desbutylhalofantrine was conducted to determine which agent was primarily responsible for QT interval prolongation. The effects of halofantrine and its active metabolite (N-desbutylhalofantrine) on repolarization were examined in an isolated perfused heart model. […] In an attempt to further elucidate the mechanism for QT interval prolongation, the effects of racemic halofantrine, its stereoisomers and N-desbutylhalofantrine on repolarizing currents in isolated ventricular myocytes were studied using patch-clamp techniques.
The effects of halofantrine and its metabolite on repolarization were examined in the isolated perfused cat heart by the method of Woosley, et al. (JAMA 269:1532-1536 (1993)). Briefly, hearts were obtained from healthy, mature anesthetized cats and perfused in a Lagendorff apparatus maintained at 37° C. […] The AV node was destroyed by cautery to produce complete heart block and allow observations at slow cycle lengths. […]

[2] = test system: delayed rectifier potassium channel; test: Block of repolarizing current (delayed rectifier potassium channel) in isolated ventricular myocytes, whole cell patch-clamp; type: cell-based; conditions: isolated feline myocytes
Experimental: as §1
Individual Cardiac Myocytes:
The cardiac electro-pharmacologic effects of halofantrine, its stereoisomers and N-desbutylhalofantrine on repolarizing currents such as the delayed rectifier potassium channel were studied in feline ventricular myocytes in vitro by the method described by Woosley, et al. (JAMA 269:1532-1536 (1993)). Briefly, rod-shaped and quiescent ventricular cells were obtained and used for electrophysiological recordings using the whole cell, single-suction pipette, voltage-clamp ("patch-clamp") technique. Computer-controlled voltage clamp pulses (duration 750 ms) were used to elicit currents. Current signals were directed to a computer for storage and data analysis. […]

[3] = cited from earlier work; for arrhythmia torsades de pointes: in patients receiving the drug; for cardiotoxicity / potentially fatal arrhythmias: use for treatment of malaria
[4] = test system: Plasmodium falciparum; test: In vitro studies against various clones of Plasmodium falciparum; type: cell-based
Experimental: Dosage of 500 mg every six hours for three doses on day one with repeat of that dosage on day 7 for a total dosage of 3000 mg is appropriate for most treatment purposes in adults. However, total dosage range of 50 to 5000 mg can be given depending on the condition, age and size of the patient. Desbutylhalofantrine may also be given at dosage of 50 to 1000 mg as a prophylactic measure. Dosage may be given daily or one day per week. Again, dosage will be determined by the clinician in accord with the needs of the particular patient. When given as a prophylactic agent, the administration may be continued for several months.

[5] = test system: malaria; conditions: teaching of U.S. Pat. No. 5,250,734 to Rossignol, et al; cited from earlier work

SMILES	prolongation of the QT interval [1]	arrhythmia torsades de pointes [3]	also measured
CCCCN(CCCC)CCC(O)c1cc2c(Cl)cc(Cl)cc2c2cc(C(F)(F)F)ccc12 (racemic) [halofantrine]	resulted in prolongation of the QT interval	torsades de pointes has been seen in patients	block of the delayed rectifier potassium channel [2]: produced a stereo-selective block of the delayed rectifier potassium channel; cardiotoxicity / potentially fatal arrhythmias [3]: can induce potentially fatal arrhythmias; cardiotoxicity / potentially fatal arrhythmias ([3]; listed as Halofantrine): has been shown to cause cardiotoxicity
C=C[C@H]1C[N@@]2CC[C@H]1C[C@H]2[C@H](O)c1ccnc2ccc(OC)cc12 [quinine]		torsades de pointes has been seen in patients	
CCN(CC)CCCC(C)Nc1ccnc2cc(Cl)ccc12 (centres unmarked) [chloroquine]		torsades de pointes has been seen in patients	
CCCCNCCC(O)c1cc2c(Cl)cc(Cl)cc2c2cc(C(F)(F)F)ccc12 (centres unmarked) [desbutylhalofantrine]	did not prolong the QT interval even when concentrations were increased to twenty fold the concentration at which halofantrine resulted in prolongation of the QT interval; also recorded: had minimal effect on the QT interval relative to the baseline		potency relative to parent compound halofantrine against clones of Plasmodium falciparum [4]: approximately equipotent with the parent compound; effectiveness for treatment of malaria relative to halofantrine [5]: less effective than halofantrine for treatment of malaria
C=C[C@H]1C[N@@]2CC[C@H]1C[C@@H]2[C@@H](O)c1ccnc2ccc(OC)cc12 [quinidine]		torsades de pointes has been seen in patients	
